# Values of other authors in PMC11952222, “Development and comparison of single FLT3-inhibitors to dual FLT3/TAF1-inhibitors as an anti-leukemic approach” (PLOS One, 2025).
# Test system: TAF1
# Settings: reference compounds; read-out: TAF1 IC50, literature-reported; cited from earlier work
compound,measurement,value
Cc1cc2c(cc1N1C(=O)c3cccc4c(CCCO)ccc(c34)C1=O)n(C)c(=O)n2C [BAY299],IC50,8 nM
